Activity calls are given as the source filed them. The rule behind the calls is not given here.
Legend:
Rattus norvegicus [1] = test: Hypoglycemic activity in Sprague-Dawley rat assessed as reduction of blood glucose level at 100 mg/kg, po by glucagon-impaired glucose disposal test relative to control; assay type: functional; design: scale not given: the % may be the effect or the level left
Rattus norvegicus [2] = test: Narcotic analgesic activity in fasted Sprague-Dawley rat at 240 mg/kg, po measured at 60 mins by D'Amour-Smith tail-flick test relative to control; assay type: functional
Mus musculus [3] = test: Analgesic activity in Swiss-Webster mouse assessed as reduction of acetylcholine-induced writhing at 25 mg/kg, sc relative to control; assay type: functional; design: scale not given: the % may be the effect or the level left; conditions: route subcutaneous
Rattus norvegicus [4] = test: Hypoglycemic activity in Sprague-Dawley rat assessed as reduction of blood glucose level at 88 mg/kg, po by glucagon-impaired glucose disposal test in presence of microsomal enzyme inhibitor SKF 525-A; assay type: functional, organism-based; design: dose 88 mg/kg
Rattus norvegicus [5] = test: Narcotic analgesic activity in fasted Sprague-Dawley rat at 120 mg/kg,sc measured at 30 mins by D'Amour-Smith tail-flick test in presence of opioid antagonist nalorphine; assay type: functional, organism-based; design: dose 120 mg/kg
Rattus norvegicus [6] = test: Hypoglycemic activity in Sprague-Dawley rat assessed as reduction of blood glucose level at 88 mg/kg, po by glucagon-impaired glucose disposal test in presence of opioid antagonist nalorphine; assay type: functional, organism-based; design: dose 88 mg/kg
Rattus norvegicus [7] = species on record: Rattus norvegicus; test: Narcotic analgesic activity in Sprague-Dawley rat at 15 mins by D'Amour-Smith tail-flick test in presence of microsomal enzyme inhibitor SKF 525-A; assay type: functional, organism-based
Rattus norvegicus [8] = test: Narcotic analgesic activity in fed Sprague-Dawley rat at 120 mg/kg, sc measured at 30 mins by D'Amour-Smith tail-flick test; assay type: functional; conditions: route subcutaneous
Mus musculus [9] = test: Analgesic activity in sc dosed Swiss-Webster mouse assessed as reduction of acetylcholine-induced writhing; assay type: functional; conditions: Mus musculus, Swiss-Webster, sc; read-out: ED50
Rattus norvegicus [10] = test: Analgesic activity in rat assessed as protection against intraarterial bradykinin-induced pain response at 100 mg/kg, sc; assay type: functional, organism-based; design: dose 100 mg/kg
Rattus norvegicus [11] = test: Hypoglycemic activity in Sprague-Dawley rat assessed as reduction of blood glucose level at 88 mg/kg, po by glucagon-impaired glucose disposal test relative to control; assay type: functional; design: scale not given: the % may be the effect or the level left
Rattus norvegicus [12] = test: Narcotic analgesic activity in fasted Sprague-Dawley rat at 240 mg/kg, po measured at 15 mins by D'Amour-Smith tail-flick test relative to control; assay type: functional
Rattus norvegicus [13] = test: Hypoglycemic activity in Sprague-Dawley rat assessed as reduction of blood glucose level at 89 mg/kg, po by glucagon-impaired glucose disposal test relative to control; assay type: functional; design: scale not given: the % may be the effect or the level left
Rattus norvegicus [14] = test: Hypoglycemic activity in glucose loaded Sprague-Dawley rat assessed as reduction of blood glucose level at 89 mg/kg, po relative to control; assay type: functional; design: scale not given: the % may be the effect or the level left
Mus musculus [15] = test: Analgesic activity in Swiss-Webster mouse assessed as reduction of acetylcholine-induced writhing at 75 mg/kg, sc relative to control; assay type: functional; design: scale not given: the % may be the effect or the level left; conditions: route subcutaneous
Rattus norvegicus [16] = test: Toxicity in Sprague-Dawley rat assessed as convulsion at 240 mg/kg, po; assay type: organism-based; design: dose 240 mg/kg, route oral; conditions: in vivo
Rattus norvegicus [17] = test: Toxicity in Sprague-Dawley rat assessed as rigidity at 240 mg/kg, po; assay type: organism-based; design: dose 240 mg/kg, route oral; conditions: in vivo
Rattus norvegicus [18] = test: Toxicity in Sprague-Dawley rat assessed as hyperexcitability at 240 mg/kg, po; assay type: organism-based; design: dose 240 mg/kg, route oral; conditions: in vivo
Rattus norvegicus [19] = test: Hypoglycemic activity in glucose loaded Sprague-Dawley rat assessed as reduction of blood glucose level at 89 mg/kg, po in presence of microsomal enzyme inhibitor SKF 525-A; assay type: functional, organism-based; design: dose 89 mg/kg
Rattus norvegicus [20] = test: Hypoglycemic activity in fasted Sprague-Dawley rat assessed as reduction of blood glucose level at 100 mg/kg, po relative to control; assay type: functional; design: scale not given: the % may be the effect or the level left
Rattus norvegicus [21] = test: Hypoglycemic activity in glucose loaded Sprague-Dawley rat assessed as reduction of blood glucose level at 100 mg/kg, po relative to control; assay type: functional; design: scale not given: the % may be the effect or the level left
Rattus norvegicus [22] = test: Narcotic analgesic activity in po dosed fasted Sprague-Dawley rat measured at 60 mins by D'Amour-Smith tail-flick test; assay type: functional; conditions: Rattus norvegicus, Sprague-Dawley, Tail, po, 1 h; read-out: ED50
Rattus norvegicus [23] = test: Hypoglycemic activity in Sprague-Dawley rat assessed as reduction of blood glucose level at 87 mg/kg, po by glucagon-impaired glucose disposal test in presence of microsomal enzyme inhibitor SKF 525-A; assay type: functional, organism-based; design: dose 87 mg/kg
[24] = Drug level in glucose loaded Sprague-Dawley rat urine treated with (RS-exo,exo)-8-methyl-2-(2-thienyl)-8-azabicyclo[3.2.1]octane-3-carboxylate at 20 mg, po administered 3 to 6 hrs measured for 24 hrs by TLC/mass spectrographic analysis; assay type: ADME, organism-based; conditions: in vivo
Mus musculus [25] = test: Toxicity in Swiss-Webster mouse assessed as stimulation of straub tail at 150 mg/kg, po after 15 to 25 mins; assay type: organism-based; design: dose 150 mg/kg, route oral; conditions: in vivo
[26] = Drug level in glucose loaded Sprague-Dawley rat urine treated with methyl (exo,exo)-8-(l-pentyl)-2-(2-thienyl)-8-azabicyclo[3.2.1]octane-3-carboxylate at 20 mg, po administered 3 to 6 hrs measured for 24 hrs by TLC/mass spectrographic analysis; assay type: ADME, organism-based; conditions: in vivo
Rattus norvegicus [27] = test: Hypoglycemic activity in Sprague-Dawley rat assessed as reduction of blood glucose level at 87 mg/kg, po by glucagon-impaired glucose disposal test relative to control; assay type: functional; design: scale not given: the % may be the effect or the level left

Structure (SMILES): CCCOC(=O)[C@H]1C[C@H]2CC[C@H]([C@H]1c1cccs1)N2C
- Activity (Rattus norvegicus [1]): <20%
- Activity (Rattus norvegicus [2]): <20%
- Activity (Mus musculus [3]): 27%

Structure (SMILES): COC(=O)[C@H]1C[C@H]2CC[C@H]([C@H]1c1cccs1)N2C
- Activity (Rattus norvegicus [4]): inactive
- Activity (Rattus norvegicus [5]): inactive
- Activity (Rattus norvegicus [6]): Active
- Activity (Rattus norvegicus [7]): inactive

Structure (SMILES): COC(=O)[C@H]1C[C@H]2CC[C@H]([C@H]1c1cccc(O)c1)N2C.Cl
- Activity (Rattus norvegicus [8]): <20%
- ED50 (Mus musculus [9]): 24 mg/kg
- Activity (Rattus norvegicus [10]): inactive
- Activity (Rattus norvegicus [11]): <20%

Structure (SMILES): CCCCCOC(=O)[C@H]1C[C@H]2CC[C@H]([C@H]1c1cccs1)N2C
- Activity (Rattus norvegicus [1]): <20%
- Activity (Rattus norvegicus [2]): <20%
- Activity (Rattus norvegicus [12]): <20%
- Activity (Mus musculus [3]): 27%

Structure (SMILES): CC[N+]12Cc3ccsc3[C@H]3[C@@H](C(=O)OC)C[C@H]1CC[C@H]32
- Activity (Rattus norvegicus [1]): <20%
- ED50 (Mus musculus [9]): 3.8 mg/kg

Structure (SMILES): COC(=O)[C@H]1C[C@H]2CC[C@H]([C@H]1c1cccc(OC)c1)N2C.Cl
- Activity (Rattus norvegicus [13]): 24%

Structure (SMILES): COC(=O)[C@H]1C[C@H]2CC[C@@H](N2)[C@H]1c1cccc(O)c1.Cl
- Activity (Rattus norvegicus [2]): <20%
- Activity (Rattus norvegicus [12]): <20%
- ED50 (Mus musculus [9]): 24 mg/kg
- Activity (Rattus norvegicus [11]): <20%

Structure (SMILES): COC(=O)[C@H]1[C@@H](OC(=O)c2ccccc2)C[C@@H]2CC[C@H]1N2C
- Activity (Rattus norvegicus [11]): Active

Structure (SMILES): COC(=O)[C@H]1C[C@H]2CC[C@H]([C@H]1c1cccs1)N2CCO.Cl
- Activity (Rattus norvegicus [14]): 72%
- Activity (Rattus norvegicus [12]): 100%
- Activity (Mus musculus [15]): 73%
- Activity (Rattus norvegicus [16]): Toxic
- Activity (Rattus norvegicus [17]): Toxic
- Activity (Rattus norvegicus [18]): Toxic
- Activity (Rattus norvegicus [19]): Active

Structure (SMILES): CCCCN1[C@@H]2CC[C@@H]1[C@@H](c1cccs1)[C@@H](C(=O)OC)C2
- Activity (Rattus norvegicus [20]): 34%
- Activity (Rattus norvegicus [12]): 88%
- Activity (Mus musculus [3]): 20%

Structure (SMILES): CCOC(=O)N(CN1[C@@H]2CC[C@@H]1[C@@H](c1cccs1)[C@@H](C(=O)OC)C2)NC(=O)OC
- Activity (Rattus norvegicus [21]): 80%

Structure (SMILES): COC(=O)[C@H]1C[C@H]2CC[C@@H](N2)[C@H]1c1cccs1.Cl
- ED50 (Rattus norvegicus [22]): 43 mg/kg
- ED50 (Mus musculus [9]): 3.3 mg/kg
- Activity (Rattus norvegicus [23]): Active
- Drug metabolism [24]: metabolite_detected
- Activity (Mus musculus [25]): Toxic
- Drug metabolism [26]: metabolite_detected
- Activity (Rattus norvegicus [27]): 43%

Structure (SMILES): CC(C)OC(=O)[C@H]1C[C@H]2CC[C@H]([C@H]1c1ccccc1)N2C.Cl
- Activity (Rattus norvegicus [13]): 28%

Structure (SMILES): COC(=O)[C@H]1C[C@H]2CC[C@H]([C@H]1c1cccs1)N2CC(N)=O.Cl
- Activity (Rattus norvegicus [14]): 66%
- Activity (Rattus norvegicus [12]): 72%
- Activity (Mus musculus [3]): 13%
- Activity (Rattus norvegicus [17]): Toxic

Structure (SMILES): CCCCCN1[C@@H]2CC[C@@H]1[C@@H](c1cccs1)[C@@H](C(=O)OCC)C2
- Activity (Rattus norvegicus [21]): 61%
- Activity (Rattus norvegicus [2]): 65%
- Activity (Mus musculus [15]): 13%

Source: ChEMBL document CHEMBL3272053, “(exo, exo)-2-Aryltropane-3-carboxylic esters, hypoglycemic agents with accompanying analgesic activity” (J Med Chem, 1978)
